Assay results from ChEMBL document CHEMBL3098003, “Structure-based design of 2-aminopyridine oxazolidinones as potent and selective tankyrase inhibitors” (ACS Med Chem Lett, 2013).
Active and inactive are the calls of the source. The calls are words filed in the database; no cut-off is given here.

How the values were obtained:
[1] = test system: Mus musculus; experiment: In vivo inhibition of tankyrase in tumor of athymic nude mouse xenografted with human DLD1 cells assessed as axin accumulation at 50 mg/kg, po bid for 3 days; format: functional, organism-based; set-up: dose 50 mg/kg; conditions: DLD-1
[2] = test system: Mus musculus; experiment: Toxicity in athymic nude mouse assessed as hunched posture at 100 mg/kg, po bid for 8 days; format: organism-based; set-up: dose 100 mg/kg, route oral; conditions: in vivo, 192 h
[3] = molecular target: Poly [ADP-ribose] polymerase tankyrase-2 (Homo sapiens, UniProt Q9H2K2); experiment: Inhibition of recombinant TNKS2 (unknown origin) after 60 mins by spectrophotometric analysis
[4] = molecular target: Beta-1 adrenergic receptor (Homo sapiens, UniProt P08588); experiment: Binding affinity to adrenergic beta1 receptor (unknown origin)
Chain of Beta-1 adrenergic receptor (P08588 whole entry): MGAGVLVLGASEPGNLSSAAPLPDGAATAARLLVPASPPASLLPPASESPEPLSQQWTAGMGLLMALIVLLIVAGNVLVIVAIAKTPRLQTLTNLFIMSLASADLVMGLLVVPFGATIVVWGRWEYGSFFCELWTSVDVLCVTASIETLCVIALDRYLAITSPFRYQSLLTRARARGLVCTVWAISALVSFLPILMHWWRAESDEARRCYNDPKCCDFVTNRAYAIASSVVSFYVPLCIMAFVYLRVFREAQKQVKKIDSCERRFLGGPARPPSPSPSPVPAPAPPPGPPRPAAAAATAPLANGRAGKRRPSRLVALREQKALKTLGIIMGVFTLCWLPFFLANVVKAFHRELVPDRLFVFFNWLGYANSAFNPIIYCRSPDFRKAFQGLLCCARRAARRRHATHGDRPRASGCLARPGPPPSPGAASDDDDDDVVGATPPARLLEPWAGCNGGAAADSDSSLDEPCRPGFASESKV

[5] = molecular target: Alpha-1A adrenergic receptor (Homo sapiens, UniProt P35348); experiment: Binding affinity to adrenergic alpha1A receptor (unknown origin)
Chain of Alpha-1A adrenergic receptor (P35348 whole entry): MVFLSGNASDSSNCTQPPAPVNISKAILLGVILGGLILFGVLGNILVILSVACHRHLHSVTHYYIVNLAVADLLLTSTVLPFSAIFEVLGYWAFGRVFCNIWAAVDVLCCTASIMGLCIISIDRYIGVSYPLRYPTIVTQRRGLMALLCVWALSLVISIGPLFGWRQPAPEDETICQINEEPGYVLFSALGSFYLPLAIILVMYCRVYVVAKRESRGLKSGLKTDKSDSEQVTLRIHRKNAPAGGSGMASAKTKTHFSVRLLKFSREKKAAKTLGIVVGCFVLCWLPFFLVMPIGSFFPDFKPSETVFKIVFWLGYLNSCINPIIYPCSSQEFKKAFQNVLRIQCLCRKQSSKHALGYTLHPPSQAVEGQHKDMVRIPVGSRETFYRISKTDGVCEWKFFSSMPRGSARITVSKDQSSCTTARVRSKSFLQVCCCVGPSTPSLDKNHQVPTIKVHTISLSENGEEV

[6] = molecular target: Somatostatin receptor type 4 (Homo sapiens, UniProt P31391); experiment: Binding affinity to SST4 receptor (unknown origin)
Chain of Somatostatin receptor type 4 (P31391 whole entry): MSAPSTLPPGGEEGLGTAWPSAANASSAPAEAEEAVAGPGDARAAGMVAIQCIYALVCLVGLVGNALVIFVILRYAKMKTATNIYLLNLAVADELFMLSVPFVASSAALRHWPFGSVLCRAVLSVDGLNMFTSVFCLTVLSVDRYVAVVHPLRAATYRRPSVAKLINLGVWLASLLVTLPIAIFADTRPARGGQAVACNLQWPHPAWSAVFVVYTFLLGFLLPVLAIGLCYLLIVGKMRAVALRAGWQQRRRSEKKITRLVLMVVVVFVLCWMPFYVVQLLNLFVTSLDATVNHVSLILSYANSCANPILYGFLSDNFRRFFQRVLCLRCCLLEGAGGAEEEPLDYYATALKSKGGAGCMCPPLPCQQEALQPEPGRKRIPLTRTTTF

[7] = test system: Mus musculus; experiment: In vivo inhibition of tankyrase-mediated Wnt gene transcription in tumor of athymic nude mouse xenografted with human DLD1 cells at 200 mg/kg, po bid for 3 days by STF assay; format: functional, organism-based; set-up: dose 200 mg/kg; conditions: DLD-1
[8] = test system: Mus musculus; experiment: In vivo inhibition of tankyrase in tumor of athymic nude mouse xenografted with human DLD1 cells assessed as axin accumulation at 200 mg/kg, po bid for 3 days; format: functional, organism-based; set-up: dose 200 mg/kg; conditions: DLD-1
[9] = test system: Mus musculus; experiment: In vivo inhibition of tankyrase-mediated axin2 gene expression in tumor of athymic nude mouse xenografted with human DLD1 cells at 200 mg/kg, po bid for 3 days by STF assay; format: functional, organism-based; set-up: dose 200 mg/kg; conditions: DLD-1
[10] = molecular target: T1, Tankyrase 1/2 (Homo sapiens, UniProt Q9H2K2+O95271); experiment: Inhibition of tankyrase in human DLD1 cells assessed as inhibition of Wnt gene transcription after 40 to 48 hrs by STF assay; format: cell-based; conditions: dld-1
T1 sequence (Q9H2K2 whole entry): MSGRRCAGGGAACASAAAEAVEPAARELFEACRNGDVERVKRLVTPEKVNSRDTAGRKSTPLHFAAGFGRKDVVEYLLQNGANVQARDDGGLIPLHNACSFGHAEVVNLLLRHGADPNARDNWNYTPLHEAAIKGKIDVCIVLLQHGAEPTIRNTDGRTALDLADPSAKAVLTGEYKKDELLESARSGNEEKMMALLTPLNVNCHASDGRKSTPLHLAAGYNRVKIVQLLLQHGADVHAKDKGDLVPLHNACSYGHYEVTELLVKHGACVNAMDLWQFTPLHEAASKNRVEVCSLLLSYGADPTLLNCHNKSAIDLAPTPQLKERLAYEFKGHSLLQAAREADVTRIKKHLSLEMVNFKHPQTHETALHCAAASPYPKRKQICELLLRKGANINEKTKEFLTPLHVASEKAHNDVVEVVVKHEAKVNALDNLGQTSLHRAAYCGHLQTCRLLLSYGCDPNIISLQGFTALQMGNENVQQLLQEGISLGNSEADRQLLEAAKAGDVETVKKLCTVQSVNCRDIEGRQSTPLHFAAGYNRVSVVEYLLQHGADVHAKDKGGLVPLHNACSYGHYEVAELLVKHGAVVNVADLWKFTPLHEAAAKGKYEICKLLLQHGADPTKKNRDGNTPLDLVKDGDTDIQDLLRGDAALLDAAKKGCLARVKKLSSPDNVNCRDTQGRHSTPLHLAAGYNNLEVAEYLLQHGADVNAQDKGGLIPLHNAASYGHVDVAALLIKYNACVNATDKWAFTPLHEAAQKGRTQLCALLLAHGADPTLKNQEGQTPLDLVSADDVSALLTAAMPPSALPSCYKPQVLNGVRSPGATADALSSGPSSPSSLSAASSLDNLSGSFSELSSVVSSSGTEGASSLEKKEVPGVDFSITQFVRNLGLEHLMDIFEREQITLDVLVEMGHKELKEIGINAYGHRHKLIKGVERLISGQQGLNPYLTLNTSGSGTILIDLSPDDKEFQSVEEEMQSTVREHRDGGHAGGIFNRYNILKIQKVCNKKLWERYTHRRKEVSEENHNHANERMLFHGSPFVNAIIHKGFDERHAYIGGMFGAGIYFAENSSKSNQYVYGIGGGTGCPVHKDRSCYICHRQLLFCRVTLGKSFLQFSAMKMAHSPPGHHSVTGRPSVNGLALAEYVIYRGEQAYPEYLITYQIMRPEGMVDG
T1 sequence (O95271 whole entry): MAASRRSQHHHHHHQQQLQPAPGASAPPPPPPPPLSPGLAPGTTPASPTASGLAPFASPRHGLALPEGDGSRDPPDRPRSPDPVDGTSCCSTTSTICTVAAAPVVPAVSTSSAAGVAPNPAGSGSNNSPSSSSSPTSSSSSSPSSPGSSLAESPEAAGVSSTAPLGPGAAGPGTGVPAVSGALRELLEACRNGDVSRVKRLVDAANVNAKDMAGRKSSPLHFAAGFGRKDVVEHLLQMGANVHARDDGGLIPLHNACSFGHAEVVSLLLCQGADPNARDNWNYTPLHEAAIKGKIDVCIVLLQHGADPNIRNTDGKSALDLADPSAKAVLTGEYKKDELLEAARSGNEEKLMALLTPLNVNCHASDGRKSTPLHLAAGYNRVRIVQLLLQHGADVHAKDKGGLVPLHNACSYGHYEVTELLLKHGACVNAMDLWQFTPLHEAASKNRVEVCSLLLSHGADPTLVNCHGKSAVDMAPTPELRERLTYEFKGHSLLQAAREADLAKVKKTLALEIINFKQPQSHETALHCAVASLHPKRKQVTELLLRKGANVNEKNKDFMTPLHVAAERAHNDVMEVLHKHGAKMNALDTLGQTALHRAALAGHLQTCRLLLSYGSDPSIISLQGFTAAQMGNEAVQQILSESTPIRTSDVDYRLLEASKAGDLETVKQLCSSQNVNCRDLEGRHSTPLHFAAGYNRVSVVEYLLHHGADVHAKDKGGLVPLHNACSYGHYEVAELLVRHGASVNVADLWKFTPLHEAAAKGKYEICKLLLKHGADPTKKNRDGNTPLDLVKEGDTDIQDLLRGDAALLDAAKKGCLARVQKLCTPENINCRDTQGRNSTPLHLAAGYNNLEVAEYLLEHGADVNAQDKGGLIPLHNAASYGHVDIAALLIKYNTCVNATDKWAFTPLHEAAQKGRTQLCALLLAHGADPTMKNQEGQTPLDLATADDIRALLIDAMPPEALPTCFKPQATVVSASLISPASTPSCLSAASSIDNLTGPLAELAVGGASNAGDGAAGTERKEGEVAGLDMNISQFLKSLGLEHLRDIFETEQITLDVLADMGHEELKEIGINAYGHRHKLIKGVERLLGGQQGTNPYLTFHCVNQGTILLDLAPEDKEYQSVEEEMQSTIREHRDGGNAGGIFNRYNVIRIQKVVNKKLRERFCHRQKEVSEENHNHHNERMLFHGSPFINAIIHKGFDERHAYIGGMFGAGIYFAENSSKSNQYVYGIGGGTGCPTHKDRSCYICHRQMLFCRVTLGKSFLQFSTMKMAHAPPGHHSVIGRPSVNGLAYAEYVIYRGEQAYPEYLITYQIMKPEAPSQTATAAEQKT

| SMILES | inhibition [1] | Activity [2] | IC50 [3] [µM] | IC50 [4] [µM] | IC50 [5] [µM] | IC50 [6] [µM] | inhibition [7] | inhibition [8] | inhibition [9] | IC50 [10] [µM] |
| --- | --- | --- | --- | --- | --- | --- | --- | --- | --- | --- |
| CC1(C)OC(=O)N([C@H]2CC[C@H](c3cnc(N)c(-c4ncccn4)c3)CC2)[C@H]1c1ccccc1 | Active | Toxic | 0.002 | > 48.5 | > 48.5 | > 48.5 | – | – | – | – |
| CC1(C)OC(=O)N(c2ccc(-c3cnc(N)c(-c4ncccn4)c3)cc2)[C@H]1c1ccccc1 | – | – | – | – | – | – | Active | Active | Active | 0.096 |
